Where “and” joins values, the source holds several entries; their conditions need not be identical. Identical values can stand only once.
Assays:
nontransgenic mice = test: Contextual fear conditioning; settings: ISRIB 2.5mpk, individual mice
nontransgenic (NTG) mice = test: Morris water maze #2, nontransgenic (NTG) mice; settings: for %Target Quadrant / Crossing Frequency / Latency to Target / Training Latency: ISRIB 2.5mpk in DMSO/PEG
[1] = ISRIB plasma levels in satellite mice (pharmacokinetic data); settings: 2.5 hours post-administration, individual mouse
rodents = test system: rodents; design: method as in Sidrauski et al., 2013; settings: delivered immediately after a stimulus or behavioral task; ref Sidrauski et al., 2013; cited from earlier work
hAPP-J20 (J20) mice = test: Morris water maze #2, hAPP-J20 mice; settings: for %Target Quadrant / Crossing Frequency / Latency to Target / Training Latency: ISRIB 2.5mpk in DMSO/PEG
[2] = Fig 4E, NTG mice, individual mice
[3] = Fig 4F, NTG mice, individual animals

## O=C(COc1ccc(Cl)cc1)NC1CCC(NC(=O)COc2ccc(Cl)cc2)CC1 (stereo not shown) [ISRIB]
Nontransgenic mice; Fig 3A
  Post-Shock: 6.61 and 2.22 and 0 and 2.28 and 2.39 and 18.72 and 31.39 and 15.72 and 15.83 and 8.22 and 17.11 and 7.56 and 7 and 11.33 and 13.11 and 8.28 and 20.33 and 19.33 and 29.44 and 32.33 and 27.56
  Pre-Shock: 1.67 and 0 and 0.97 and 2.33 and 0.86 and 33.64 and 1.83 and 1.44 and 1.08
Nontransgenic mice; Fig 3B
  1st 4 min context: 11.1 and 4.75 and 30.01 and 15.49 and 4.44 and 18.51 and 26.85 and 38.13 and 45.92 and 9.61 and 2.13 and 12.76 and 6.75 and 15.99 and 18.96 and 31.54 and 27.17 and 21.38 and 27.25 and 14.79 and 16.25 and 41.57 and 18.94 and 33.54 and 25.69 and 47.14 and 19.89 and 27.42 and 56.35 and 28.89
  2nd 4 min context: 31.29 and 5.25 and 33.13 and 30.94 and 0 and 19.46 and 29.43 and 31.87 and 22.86 and 6.96 and 10.43 and 9.1 and 5.42 and 17.46 and 22.21 and 24.07 and 43.26 and 31.68 and 31.22 and 19.13 and 25.14 and 47.79 and 41.86 and 24.76 and 22.15 and 38.53 and 12.88 and 14.39 and 38.49 and 10.29
  8 min context: 21.54 and 5 and 31.79 and 23.22 and 2.22 and 18.99 and 28.14 and 35.24 and 34.55 and 8.28 and 6.28 and 10.93 and 6.08 and 16.72 and 20.58 and 27.86 and 35.22 and 26.54 and 29.26 and 16.96 and 20.81 and 44.68 and 30.75 and 29.15 and 24.19 and 43.22 and 16.38 and 20.9 and 47.8 and 19.59
Nontransgenic (NTG) mice; 0.25 mpk in 1% DMSO/saline, vs vehicle
  MWM training latency NTG Trial*ISRIB (linear mixed effects regression model): −0.1 sec/day
Nontransgenic (NTG) mice; [2]
  %Target Quadrant: 53.4979% and 33.8116% and 21.5771% and 31.9208% and 40.8186% and 33.2555% and 14.7926% and 38.7054% and 50.3837% and 29.8076% and 34.8126% and 37.4819%
  Crossing Frequency: 7 and 3 and 0 and 4 and 2 and 1 and 6
  Latency to Target: 12.9463 and 11.6116 and 60 and 7.741 and 3.4034 and 4.6046 and 17.8846 and 5.806 and 58.7921 and 9.409 and 18.6186
Nontransgenic (NTG) mice; Fig 4F, NTG mice, individual mice
  %Target Quadrant: 51.4959% and 27.4719% and 32.1433% and 20.02% and 23.9128% and 54.4989% and 37.8156% and 28.8066% and 47.6032% and 24.024% and 39.8176%
Nontransgenic (NTG) mice; [3]
  Crossing Frequency: 7 and 3 and 5 and 2 and 1
  Latency to Target: 10.7441 and 4.6046 and 20.3537 and 7.474 and 3.27 and 20.1535 and 5.6056 and 21.1545 and 23.6904 and 21.4214 and 20.287 and 19.2859
Nontransgenic (NTG) mice; NTG mice, Trial 8, individual mice (Fig 4A-D)
  Training Latency: 2.936 and 11.4781 and 15.9493 and 10.5439 and 6.139 and 7.074 and 4.8048 and 33.3667 and 6.74 and 48.7821 and 3.871 and 75.7424
Nontransgenic (NTG) mice; NTG mice, Trial 9, individual mice (Fig 4A-D)
  Training Latency: 45.6457 and 6.273 and 8.742 and 30.297 and 12.6793 and 5.739 and 57.0571 and 4.8048 and 11.8118 and 7.341 and 70.1368 and 5.138
Nontransgenic (NTG) mice; NTG mice, Trial 10, individual mice (Fig 4A-D)
  Training Latency: 3.737 and 4.004 and 28.295 and 62.9963 and 3.67 and 21.6216 and 5.939 and 22.6226 and 8.542 and 19.4861 and 60 and 4.271
Nontransgenic (NTG) mice; NTG mice, Trial 11, individual mice (Fig 4A-D)
  Training Latency: 31.7651 and 42.1088 and 14.281 and 24.7581 and 7.074 and 6.54 and 24.024 and 52.7861 and 11.6116 and 20.7541 and 39.5062 and 3.6036
Nontransgenic (NTG) mice; NTG mice, 0.25 or 2.5 mpk
  learning during the training trials: did not observe an improvement in learning
Nontransgenic (NTG) mice; NTG mice, 72 hour probe trial, 0.25 or 2.5 mpk
  spatial memory treatment effects: did not observe significantly positive treatment effects
[1]; Morris water maze #1 satellite mice, 0.25 mpk i.p. (1% DMSO/saline), 0.25 mg/kg
  Plasma concentration: 65.3 ng/mL and 71.9 ng/mL
[1]; Morris water maze #2 satellite mice, 0.25 mpk i.p. (1% DMSO/saline), 0.25 mg/kg
  Plasma concentration: 66.6 ng/mL and 65.6 ng/mL
[1]; Morris water maze #2 satellite mice, 2.5 mpk i.p. (DMSO/PEG), 2.5 mg/kg
  Plasma concentration: 657 ng/mL and 348 ng/mL and 286 ng/mL
rodents
  effect on spatial and fear memory: enhance spatial and fear memory
hAPP-J20 (J20) mice; 0.25 or 2.5 mpk
  learning during the training trials: did not observe an improvement in learning
hAPP-J20 (J20) mice; 72 hour probe trial, 0.25 or 2.5 mpk
  spatial memory treatment effects: did not observe significantly positive treatment effects
hAPP-J20 (J20) mice; Fig 4E, individual mice
  %Target Quadrant: 31.3647% and 28.3617% and 19.6864% and 31.5871% and 22.6894% and 33.1443% and 19.1302% and 8.787% and 27.8056% and 30.5861% and 20.9098% and 21.7996%
  Crossing Frequency: 3 and 2 and 0 and 1
  Latency to Target: 3.136 and 38.1715 and 60 and 8.542 and 51.318 and 28.5619 and 11.0777
hAPP-J20 (J20) mice; Fig 4F, individual animals
  Crossing Frequency: 3 and 1 and 0 and 4
  Latency to Target: 7.941 and 17.6843 and 60 and 4.8048 and 4.538 and 12.7461 and 25.1585 and 9.076
hAPP-J20 (J20) mice; Fig 4F, individual mice
  %Target Quadrant: 32.9218% and 31.4759% and 23.2455% and 26.026% and 17.9068% and 37.2595% and 13.013% and 23.1343% and 9.676% and 36.9258% and 20.7986% and 27.6944%
hAPP-J20 (J20) mice; Trial 8, individual mice (Fig 4A-D)
  Training Latency: 120.187 (5×) and 47.5142 and 79.2125 and 54.9216 and 27.9613 and 39.306 and 87.0204 and 3.937
hAPP-J20 (J20) mice; Trial 9, individual mice (Fig 4A-D)
  Training Latency: 119.052 and 25.2252 and 42.5759 and 34.301 and 6.673 and 11.3447 and 10.8775 and 120.187 (2×) and 96.2296 and 50.5839 and 5.272
hAPP-J20 (J20) mice; Trial 10, individual mice (Fig 4A-D)
  Training Latency: 11.3447 and 82.5492 and 23.8906 and 120.187 (3×) and 29.1625 and 43.9106 and 12.3457 and 39.2392 and 38.9056 and 8.008
hAPP-J20 (J20) mice; Trial 11, individual mice (Fig 4A-D)
  Training Latency: 26.293 and 117.251 and 19.4861 and 120.187 (5×) and 28.2282 and 11.4781 and 13.4134 and 31.1645

— PMC5075699
